Where two headings read alike, the source gives them in different places.
How the values were obtained:
[1] = target: TYK2 (JH2 domain) (Homo sapiens (Human), UniProt P29597); test: TYK2 JH2 domain binding assay (DiscoverX KINOMEscan); conditions: 11-point 3-fold dilution, duplicate
Experimental: (§1) The assay is performed by combining three components: DNA-tagged kinase; immobilized ligand; and a test compound. The ability of the test compound to compete with the immobilized ligand is measured via quantitative PCR of the DNA tag.
(§2) The liganded beads were blocked with excess biotin and washed with blocking buffer (SeaBlock (Pierce), 1% BSA, 0.05% Tween 20, 1 mM DTT) to remove unbound ligand and to reduce non-specific binding. […] Test compounds were prepared as 111× stocks in 100% DMSO. All test compounds were shipped to DiscoverX in DMSO with concentration of 10 mM. Kds were determined using an 11-point 3-fold compound dilution series with three DMSO control points. Each compound was tested in duplicate. […] The compounds were then diluted directly into the assays such that the final concentration of DMSO was 0.9%. All reactions performed in polypropylene 384-well plate. Each was a final volume of 0.02 ml. […] The kinase concentration in the eluates was measured by qPCR.
(§3) The amount of kinase measured by qPCR (Signal; y-axis) is plotted against the corresponding compound concentration in nM in log 10 scale (x-axis). Binding constants (Kds) were calculated with a standard dose-response curve using the Hill equation:
The Hill Slope was set to −1.
Curves were fitted using anon-linear least square fit with the Levenberg-Marquardt algorithm.

[2] = tested on: IL12-induced p-STAT4 in human PBMC; test: IL-12 induced pSTAT4 in human PBMC; format: cell-based; conditions: read-out: p-STAT4 IC50
[3] = tested on: INFα induced pSTAT3 in human PBMC; test: INFα induced pSTAT3 in human PBMC; format: cell-based; conditions: read-out: p-STAT3 IC50
Experimental: Fresh Human PBMCs were resuspended in RPMI 1640 medium with 10% FBS. Cells were seeded in a round bottom 96-well plate at the concentration of 200,000 cells/well. A 10-point dilution series of test compound (top dose 10 uM, 1:5 dilution) was added to the well using the liquid dispenser (Tecan D300e) and incubated for 1 hour at 37 C. Then human INFα recombinant protein (R&D Systems) was added to the well at the final concentration of 5000 units/ml and incubated for 15 minutes at 37 C. Cell lysates were prepared and analyzed by Phospho STAT3 (Tyr705) cellular kit (Cisbio) or Phospho STAT5 (Tyr693) Kit (Meso Scale Discovery) following manufacturer's protocol.
For calculation of the inhibition rate, the relative pSTAT signal of each well=pSTAT signal of each well−the average pSTAT signal of baseline. The inhibition %=(the average pSTAT signal of INFα treatment wells−the relative of pSTAT signal in each compound containing well)/the average pSTAT signal of INFα treatment wells*100%
The curve was plotted as the inhibition % (y-axis) vs. compounds concentration (x-axis) and was fitted with log(inhibitor) vs. normalized response—Variable slope by GraphPad Prism7.0.

[4] = tested on: INFα induced pSTAT5 in human PBMC; test: INFα induced pSTAT5 in human PBMC; format: cell-based; conditions: human PBMC, INFα 5000 units/ml; read-out: p-STAT5 IC50
[5] = target: JAK1 (JH2 domain) (Homo sapiens (Human), UniProt P23458); test: JAK1 JH2 domain binding assay (KINOMEscan)
Chain of JAK1 (JH2 domain) (P23458 583-855): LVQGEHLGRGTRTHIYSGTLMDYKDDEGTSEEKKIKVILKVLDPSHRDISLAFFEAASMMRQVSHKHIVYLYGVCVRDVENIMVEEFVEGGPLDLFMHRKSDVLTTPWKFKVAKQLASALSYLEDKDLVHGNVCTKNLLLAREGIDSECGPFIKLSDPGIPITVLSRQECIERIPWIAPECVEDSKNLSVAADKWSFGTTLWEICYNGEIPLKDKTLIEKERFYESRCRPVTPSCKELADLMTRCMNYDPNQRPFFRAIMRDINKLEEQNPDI
Experimental: as §1, §2, §3
(§4) Similar to the method for TYK2 JH2 binding described above, JAK1 JH2 and JAK2 JH1 domain binding assay was performed using DiscoverX's KINOMEscan™, but with change of kinase domain.

[6] = target: JAK2 (JH1 domain) (Homo sapiens (Human), UniProt O60674); test: JAK2 JH1 domain binding assay (KINOMEscan)
Chain of JAK2 (JH1 domain) (O60674 849-1124): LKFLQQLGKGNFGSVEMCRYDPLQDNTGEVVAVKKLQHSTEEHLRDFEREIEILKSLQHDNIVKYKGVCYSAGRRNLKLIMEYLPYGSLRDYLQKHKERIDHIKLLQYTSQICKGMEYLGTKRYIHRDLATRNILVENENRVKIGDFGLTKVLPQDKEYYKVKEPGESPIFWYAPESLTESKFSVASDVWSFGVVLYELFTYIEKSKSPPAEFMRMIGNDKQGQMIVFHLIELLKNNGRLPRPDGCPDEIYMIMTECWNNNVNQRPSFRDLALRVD
Experimental: as §1, §2, §3, §4

[7] = KINOMEscan, read-out: JAK1 (JH2 domain) binding Kd

Chain of TYK2 (JH2 domain) (P29597 589-875): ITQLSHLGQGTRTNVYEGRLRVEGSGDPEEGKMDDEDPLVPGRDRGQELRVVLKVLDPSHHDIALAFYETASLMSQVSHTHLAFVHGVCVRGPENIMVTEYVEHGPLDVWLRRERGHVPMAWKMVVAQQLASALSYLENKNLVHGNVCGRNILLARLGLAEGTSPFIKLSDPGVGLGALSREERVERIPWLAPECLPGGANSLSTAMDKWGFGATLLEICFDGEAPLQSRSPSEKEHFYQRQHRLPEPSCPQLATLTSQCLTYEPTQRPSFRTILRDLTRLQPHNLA

`[2H]C([2H])([2H])NC(=O)c1nnc(N2CCN(CC(F)F)C2=O)cc1Nc1cccc(-c2ncn(C)n2)c1OC` [Example 8, 6-[3-(2,2-difluoroethyl)-2-oxo-imidazolidin-1-yl]-4-[2-methoxy-3-(1-methyl-1,2,4-triazol-3-yl)anilino]-N-(trideuteriomethyl)pyridazine-3-carboxamide; 2,2,2-trifluoroacetic acid] was tested, and the Kd [1] was at most 1 nM, the IC50 ([2]; Homo sapiens, PBMC) was under 100 nM and the IC50 ([3]; Homo sapiens, PBMC) was under 100 nM.

Work on `CC(C)(O)c1ccc(Nc2cc(Nc3ncccc3S(C)(=O)=O)c(C(=O)C3CC3)cn2)nc1F` [Example 159] yielded a Kd [1] of at most 1 nM, an IC50 [4] of under 100 nM and a Kd [5, 7] of under 100 nM. The Kd [6] was 1000 to 10000 nM.

`[2H]C([2H])([2H])NC(=O)c1nnc(N2CCN(C(C)C)C2=O)cc1Nc1nccc(-c2ncn(C)n2)c1OC` [Example 147, 6-(3-isopropyl-2-oxo-imidazolidin-1-yl)-4-[[3-methoxy-4-(1-methyl-1,2,4-triazol-3-yl)-2-pyridyl]amino]-N-(trideuteriomethyl)pyridazine-3-carboxamide] was tested, and the Kd [1] was at most 1 nM, the IC50 [4] was under 100 nM and the Kd [5, 7] was under 100 nM. For the same molecule, the Kd [6] was over 10000 nM.

With `COc1c(-c2ncn(C)n2)ccnc1Nc1cc(NC(=O)C2CC2)ncc1C(=O)C1CC1` [Example 166] the IC50 [4] was under 100 nM, the Kd [5, 7] was under 100 nM and the Kd [6] was 1000 to 10000 nM.

Work on `[2H]C([2H])([2H])NC(=O)c1nnc(N2CCNC2=O)cc1Nc1cccc(-c2ncn(C)n2)c1OC` [Example 1, 4-[2-methoxy-3-(1-methyl-1,2,4-triazol-3-yl)anilino]-6-(2-oxoimidazolidin-1-yl)-N-(trideuteriomethyl)pyridazine-3-carboxamide] yielded a Kd [1] of at most 1 nM, an IC50 ([2]; human PBMC, IL-12 10 ng/ml) of under 100 nM and an IC50 ([3]; human PBMC, INFα 5000 units/ml) of 100 to 1000 nM.

For `CCC(=O)c1cnc(NC(=O)C2CC2)cc1Nc1nccc(-c2ncn(C)n2)c1OC` [Example 163], the Kd [1] was at most 1 nM, the IC50 [4] was under 100 nM and the Kd [5] was under 100 nM. It also gave a Kd [6] of 100 to 1000 nM.

Molecule `[2H]C([2H])([2H])NC(=O)c1nnc(NC(=O)N2CC(C)(C)C2)cc1Nc1cccc(-c2ncn(C)n2)c1OC` [Example 38] has a Kd [1] of at most 1 nM, an IC50 [4] of under 100 nM and a Kd [5, 7] of under 100 nM. For the same molecule, the Kd [6] was 1000 to 10000 nM.

Work on `[2H]C([2H])([2H])NC(=O)c1nnc(N2CCN(CC)C2=O)cc1Nc1cccc(-c2ncn(C)n2)c1OC` [Example 12, 6-(3-ethyl-2-oxo-imidazolidin-1-yl)-4-[2-methoxy-3-(1-methyl-1,2,4-triazol-3-yl)anilino]-N-(trideuteriomethyl)pyridazine-3-carboxamide] yielded a Kd [1] of at most 1 nM, an IC50 ([2]; Homo sapiens, PBMC) of under 100 nM and an IC50 ([3]; Homo sapiens, PBMC) of under 100 nM.

`[2H]C([2H])([2H])NC(=O)c1nnc(N2CCN(CC(F)(F)F)C2=O)cc1Nc1cccc(-c2ncn(C)n2)c1OC` [Example 67] was tested, and the Kd [1] was at most 1 nM, the IC50 ([2]; human PBMC, IL-12 10 ng/ml) was under 100 nM and the IC50 ([3]; human PBMC, INFα 5000 units/ml) was 100 to 1000 nM.

Work on `COc1c(Nc2cc(NC(=O)C3CC3)nnc2C(=O)C2CC2)cccc1-c1ncn(C)n1` [Example 26] yielded a Kd [1] of at most 1 nM, an IC50 ([2]; human PBMC, IL-12 10 ng/ml) of under 100 nM and an IC50 ([3]; human PBMC, INFα 5000 units/ml) of 100 to 1000 nM.

`[2H]C([2H])([2H])NC(=O)c1nnc(N2CC(C)(C)C2)cc1Nc1cccc(-c2ncn(C)n2)c1OC` [Example 62] was tested, and the Kd [1] was 5 to 10 nM, the IC50 ([2]; human PBMC, IL-12 10 ng/ml) was 1000 to 10000 nM and the IC50 ([3]; human PBMC, INFα 5000 units/ml) was 1000 to 10000 nM.

`COc1c(Nc2cc(NC(=O)C3CC3)nnc2C(=O)C(F)F)cccc1-c1ncn(C)n1` [Example 44] was tested, and the Kd [1] was 1 to 5 nM, the IC50 ([2]; human PBMC, IL-12 10 ng/ml) was 100 to 1000 nM and the IC50 ([3]; human PBMC, INFα 5000 units/ml) was 1000 to 10000 nM.

With `[2H]C([2H])([2H])NC(=O)c1nnc(N2CCC2=O)cc1Nc1cccc(-c2ncn(C)n2)c1OC` [Example 3, 4-[2-methoxy-3-(1-methyl-1,2,4-triazol-3-yl)anilino]-N-methyl-6-(2-oxoazetidin-1-yl) pyridazine-3-carboxamide] the Kd [1] was 5 to 10 nM, the IC50 ([2]; human PBMC, IL-12 10 ng/ml) was 100 to 1000 nM and the IC50 ([3]; human PBMC, INFα 5000 units/ml) was 1000 to 10000 nM.
